{"source": "patent US12023329B2", "about": "“Methods for the treatment of diseases associated with activation of inflammasomes” (Chang Gung University, priority 2020, dated 2024)", "key": {"LPS-primed d-THP-1 cells [1]": {"system": "LPS-primed d-THP-1 cells", "assay": "Nigericin-induced pyroptotic LDH release", "type": "cell-based, Human", "settings": "rebastinib 0.01-1 μM, 30 min, nigericin 5 μM 30 min", "description": "(§1) Pyroptosis is a form of programmed cell death. In this process, immune cells recognize foreign danger signals within themselves, release pro-inflammatory cytokines, swell, burst, and die. In this example, the effects of the present compound on nigericin-induced pyroptotic cell death and LDH release were investigated, in which the pyroptosis phenomena was observed using Field Emission Scanning Electron Microscope, and LDH level was determined by enzymatic assay."}, "LPS-primed d-THP-1 cells [2]": {"system": "LPS-primed d-THP-1 cells", "assay": "Nigericin-induced ASC speck formation (fluorescent microscopy)", "type": "cell-based, Human", "settings": "rebastinib 1 μM or glibenclamide 50 μM, 30 min, nigericin 5 μM 30 min, anti-ASC staining", "description": "d-THP-1 cells (treated with LPS, the tested compound, and the stimulant as described above or untreated) were fixed by 4% paraformaldehyde, washed with PBS (3 times), treated with Triton-X-100 (0.1%) for 10 min, washed with PBS (3 times), added 5% BSA for 1 hr, then washed with PBS (3 times) before the primary antibody (anti-ASC) was added. The primary anti-ASC antibody labeled cells were incubated at 4° C. overnight, then was labeled with the secondary antibody at RT for 1 hr, washed with PBS (3 times), added Hoechst 33342, washed with PBS (3 times), added ProLong™ Gold antifade reagent, then photographed using Fluorescent Microscope (IX81 Olympus, with Lumen 200 Fluorescence Illumination System). A hallmark of inflammasome activation is the ASC speck, a micrometre-sized structure formed by the inflammasome adaptor protein ASC (apoptosis-associated speck-like protein containing a CARD), which consists of a pyrin domain (PYD) and a caspase recruitment domain (CARD). In this example, the effect of the present compound on nigericin-induced formation of ASC speck in LPS-primed d-THP-1 cells was observed using fluorescence microscope, and results are illustrated in FIG. 8."}, "LPS-primed d-THP-1 cells [3]": {"system": "LPS-primed d-THP-1 cells", "assay": "Nigericin-induced IL-18 secretion in LPS-primed d-THP-1 cells (ELISA)", "type": "cell-based, Human", "settings": "rebastinib 0.01-1 μM, 30 min pre-incubation, nigericin 5 μM 30 min", "description": "(§2) Human monocytic cell line THP-1 was purchased from American Type Culture Collection (ATCC) and maintained in RPMI-1640 Medium supplemented with 10% fetal bovine serum (FBS), 1% antibiotic-antimycotic solution, 0.1% (3-mercaptoethanol ((3-ME), and phenol red indicator in an incubator at 37° C. with 5% CO2. The medium was changed every 2-3 days.\n(§3) To induce differentiation, THP-1 cells (cell density was about 5×10^5/mL) was cultivated in a serum-free medium containing 100 nM of phorbol 12-myristate 13-acetate (PMA) for about 4 hr. Then, the PMA-containing medium was replaced with a fresh RPMI-1640 medium, and the cultivation was continued for another 2 days to allow the THP-1 cells to differentiate into macrophage-like cells, hereafter termed “d-THP-1 cells.”\n(§4) d-THP1 cells were first treated with 100 ng/mL of lipopolysaccharide (LPS) for 3 hr, then LPS-containing medium was replaced by a fresh medium. […]\n(§5) The level of IL-1β and IL-18 was independently determined by ELISA assay kit (R&D system) in accordance with the manufacturer's protocol. The level of […] and IL-18 was determined from the 450 and 540 nm absorbance measured by Multiskan GO multiplate reader. […]"}, "LPS-induced ALI in mice": {"system": "LPS-induced ALI in mice", "assay": "Animal model of LPS-induced acute lung injury (ALI)", "type": "in vivo, mice (C57BL/6)", "settings": "rebastinib 10 mg/kg i.v. 1 hr before intra-tracheal LPS 2 mg/kg, lungs collected 5 hr later", "description": "(§6) C57BL/6 mice (7-10-week-old, each weighted about 20-25 g) were maintained in micro-isolator units on a standard laboratory diet. Animals were housed under humidity- and temperature-controlled conditions and the light/dark cycle was set at 12-hr intervals, maintained under specified and opportunistic pathogen-free conditions. All animal studies were conducted under protocol approved by the Animal Care and Use Committee of Chang Gung University (Taipei, Taiwan).\nALI was induced by intra-tracheal spray of 2 mg/kg LPS in 7-8 weeks old C57BL/6 mice. Mice were fasted overnight and then intravenously injected with 50 ul of rebastinib (10 mg/kg) or an equal volume of solvent (vehicle). After 1 hr, mice were instilled with an intra-tracheal spray of 2 mg/kg LPS (dissolved in 40 μl 0.9% saline) or 0.9% saline under anesthesia. 5 hr later, mice were sacrificed and the lungs were collected. The lungs were fixed in 10% formalin for tissue section. The lung sections were stained with hematoxylin and eosin (H&E).\nIn this example, animal model of ALI was used to investigate the effect of the present compound on ALI. Mice were intravenously injected with 50 ul of rebastinib (10 mg/kg) or an equal volume of solvent (vehicle). After 1 hr, mice were instilled with an intra-tracheal spray of 2 mg/kg LPS (dissolved in 40 μl 0.9% saline) or 0.9% saline under anesthesia. […]"}, "LPS-primed d-THP-1 cells [4]": {"system": "LPS-primed d-THP-1 cells", "assay": "Nigericin-induced IL-1β secretion in LPS-primed d-THP-1 cells (ELISA)", "type": "cell-based, Human", "settings": "rebastinib 0.01-1 μM, 30 min pre-incubation, nigericin 5 μM 30 min, IL-1β in supernatant by ELISA", "description": "as §2, §3, §4, §5"}, "LPS-primed d-THP-1 cells [5]": {"system": "LPS-primed d-THP-1 cells", "assay": "MSU-induced IL-1β secretion in LPS-primed d-THP-1 cells (ELISA)", "type": "cell-based, Human", "settings": "rebastinib 0.003-1 μM, 30 min pre-incubation, MSU 100 μg/ml 4 hr", "description": "as §2, §3, §4, §5"}, "LPS-primed d-THP-1 cells [6]": {"system": "LPS-primed d-THP-1 cells", "assay": "Nigericin-induced pyroptotic cell death observed by field emission scanning electron microscopy", "type": "cell-based, Human", "settings": "rebastinib 1 μM or glibenclamide 50 μM, 30 min, nigericin 5 μM 30 min, SEM images", "description": "d-THP-1 cells (treated with LPS, the tested compounds, and the stimulant as described above or untreated) were fixed, in sequence, by use of 4% paraformaldehyde and 2.5% glutaraldehyde, respectively for 10 min, washed with PBS, then reacted with osmium tetroxide (OsO4) for 30 min; the cells were thoroughly washed with distilled water, then incubated with tannic acid for 30 min. […] Repeated the 100% ethanol dehydration step 3 times. The specimens were then dried with a mixture of CO2 and ethanol supercritical condition using Critical Point Dryer (CPD) (LEICAME CPD 300). The dried specimens were subsequently fixed on an alumina platform, and sputted with gold ions (ion sputter, JEOL JFC-1100E, operated at 1-2 mA for 60 sec) before subjecting to observation under Field Emission Scanning Electron Microscope (FE-SEM).\nas §1"}, "LPS-primed d-THP-1 cells [7]": {"system": "LPS-primed d-THP-1 cells", "assay": "Imiquimod-induced IL-1β secretion in LPS-primed d-THP-1 cells (ELISA)", "type": "cell-based, Human", "settings": "rebastinib 0.003-1 μM, 30 min pre-incubation, IMQ 100 μM 2 hr", "description": "as §2, §3, §4, §5"}, "[8]": {"system": "LPS/D-GalN-induced acute liver failure in mice", "assay": "Animal model of LPS/D-GalN-induced acute liver failure", "type": "in vivo, mice (C57BL/6)", "settings": "for acute liver failure: liver bleeding and inflammation (gross liver morphology): rebastinib 5 or 10 mg/kg i.v. 1 hr before LPS (40 μg/kg)/D-GalN (400 mg/kg) i.p.", "description": "as §6\nMice were randomly divided into 4 groups. The test compound rebastinib (5 or 10 mg/Kg) or a control solvent (80% saline, 10% ethanol, 10% Tween-20) was injected through the tail vein of each mice. The mice were allowed to rest for 1 hr, then LPS ([…])/D-GalN (400 mg/Kg) was injected through abdominal space for 5 hr to induce acute liver failure. Blood samples and tissue samples were respectively collected. Blood samples were analyzed for their respective levels of LDH, AST, ALT, BUN, and CRE. The livers were fixed in 10% formalin for tissue section. The liver sections were stained with hematoxylin and eosin (H&E).\nIn this example, animal model of acute liver failure was used to investigate the effect of the present compound on acute liver failure. Briefly, animals were first subjected to LPS/D-GalN treatment (LPS: 40 […]) to create acute liver failure, then blood and tissue samples with or without treatment of the present compound were taken, which were then subjected to biochemistry and microscopy analysis."}, "[9]": {"settings": "rebastinib 5 or 10 mg/kg i.v., LPS/D-GalN i.p. 5 hr"}}, "data": [{"compound": "4-[4-[(5-tert-butyl-2-quinolin-6-ylpyrazol-3-yl)-carbamoylamino]-3-fluorophenoxy]-N-methylpyridine-2-carboxamide [rebastinib]", "values": [{"measurement": "nigericin-induced pyroptotic LDH release", "setting": "LPS-primed d-THP-1 cells [1]", "value": "inhibited"}, {"measurement": "nigericin-induced pyroptotic LDH release", "setting": "LPS-primed d-THP-1 cells [1]; listed as present compound", "value": "inhibitory effect"}, {"measurement": "nigericin-induced ASC speck formation", "setting": "LPS-primed d-THP-1 cells [2]", "value": "inhibited"}, {"measurement": "nigericin-induced ASC speck formation", "setting": "LPS-primed d-THP-1 cells [2]; listed as present compound", "value": "greatly reduced"}, {"measurement": "nigericin-induced IL-18 secretion", "setting": "LPS-primed d-THP-1 cells [3]", "value": "inhibited"}, {"measurement": "nigericin-induced IL-18 secretion", "setting": "LPS-primed d-THP-1 cells [3]; listed as present compound", "value": "significantly reduced"}, {"measurement": "LPS-induced lung morphology change and infiltration (H&E)", "setting": "LPS-induced ALI in mice", "value": "significantly attenuated"}, {"measurement": "LPS-induced lung morphology change and infiltration (H&E)", "setting": "LPS-induced ALI in mice; listed as Rebastinib", "value": "attenuated"}, {"measurement": "nigericin-induced IL-1β secretion", "setting": "LPS-primed d-THP-1 cells [4]", "value": "inhibited"}, {"measurement": "nigericin-induced IL-1β secretion", "setting": "LPS-primed d-THP-1 cells [4]; listed as present compound", "value": "significantly reduced"}, {"measurement": "MSU-induced IL-1β secretion", "setting": "LPS-primed d-THP-1 cells [5]", "value": "inhibited"}, {"measurement": "MSU-induced IL-1β secretion", "setting": "LPS-primed d-THP-1 cells [5]; listed as present compound", "value": "suppressed"}, {"measurement": "nigericin-induced pyroptotic cell death (swelling, bubbles, lysis)", "setting": "LPS-primed d-THP-1 cells [6]", "value": "inhibited"}, {"measurement": "nigericin-induced pyroptotic cell death (swelling, bubbles, lysis)", "setting": "LPS-primed d-THP-1 cells [6]; listed as present compound", "value": "significantly reduced"}, {"measurement": "imiquimod-induced IL-1β secretion", "setting": "LPS-primed d-THP-1 cells [7]", "value": "inhibited"}, {"measurement": "imiquimod-induced IL-1β secretion", "setting": "LPS-primed d-THP-1 cells [7]; listed as present compound", "value": "suppressed"}, {"measurement": "acute liver failure: liver bleeding and inflammation (gross liver morphology)", "setting": "[8]; 5 hr", "value": "attenuated"}, {"measurement": "acute liver failure: liver bleeding and inflammation (gross liver morphology)", "setting": "[8]; 5 hr, listed as present compound", "value": "significant attenuation"}, {"measurement": "liver tissue weight", "setting": "[8]; rebastinib 5 or 10 mg/kg i.v. 1 hr before LPS/D-GalN i.p., 5 hr", "value": "decreases"}, {"measurement": "serum ALT level", "setting": "[8]; [9]", "value": "decreased significantly"}, {"measurement": "serum AST level", "setting": "[8]; [9]", "value": "decreased significantly"}, {"measurement": "serum CRE level", "setting": "[8]; [9]", "value": "decreased significantly"}, {"measurement": "serum LDH level", "setting": "[8]; [9]", "value": "decreased significantly"}, {"measurement": "serum biochemical parameters (AST, ALT, BUN, CRE, LDH)", "setting": "[8]; rebastinib 5 or 10 mg/kg i.v., LPS/D-GalN i.p. 5 hr, clinical chemistry analyzer", "value": "attenuated"}]}, {"compound": "COc1ccc(Cl)cc1C(=O)NCCc1ccc(S(=O)(=O)NC(=O)NC2CCCCC2)cc1", "note": "[glibenclamide]", "values": [{"measurement": "nigericin-induced ASC speck formation", "setting": "LPS-primed d-THP-1 cells [2]", "value": "greatly reduced"}, {"measurement": "nigericin-induced pyroptotic cell death (swelling, bubbles, lysis)", "setting": "LPS-primed d-THP-1 cells [6]", "value": "significantly reduced"}]}]}
